For data set [1] the following is noted: cited from earlier work.
The nature of data set [2]: Net peptide charge and isoelectric point (FIGS. 9-10). It is filed as physicochemical. The conditions noted are these: pH 7. The source says: The peptide may be purified. For example, the peptide may be lyophilized. […] Other peptides are within the scope of the disclosure.
Exemplary peptides having a charge of +5 to +9 include […](d)[…], […](d)[…], and […](d)[…]. In other embodiments, the purified peptide may be substantially neutral. […] Net charge may be selected by peptide design. Design of electrostatic charge in the peptide hydrogel may allow control of charge interaction with cell membrane and proteins.

A further data set relates to decorin. As to the kind of experiment: ChaseABC release from peptide hydrogels, bioactivity on decorin (FIGS. 6B, 15). The conditions noted are these: pilot data, days 3 and 5. The source says: The protein was not degraded.
In addition to release and retention rates, in analogous experiments the released and retained ChaseABC enzyme will also be assayed for bioactivity. Activity will be assessed through the efficacy of the sample to digest the small proteoglycan decorin as described previously.
Importantly, the protein was not degraded.

Non-standard residues stand in square brackets, D forms with d. No end group written: not given here.

As to `NCCCC[C@H](N)C(=O)O` [lysine], the “side chain pKa” value in data set [1] is reported as “about 10.5”. For the compound `O=C(O)C(F)(F)F` [trifluoroacetic acid], the pKa result in data set [1] is on record as “about 0”.

“VEVSVSVEV(d)PPTEVSVEVEV (VEVSVSVEV[dP]PTEVSVEVEV)”: in data set [2], the net charge result is “net negative charge”.

With chondroitinase ABC [ChaseABC], the “bioactivity of released enzyme on decorin substrate” value in the data set on decorin is reported as “release of bioactive enzyme from the gel was demonstrated”.

Values taken from US20250134946A1 (GEL4MED, INC., priority 2021, published 2025).
